According to article PMC10269165 (Antimicrobial Agents and Chemotherapy, 2023):

Test system: susceptible isolate of H. contortus, exsheathed L3 larvae
Assay: Larval motility assay (LMA), Worminator
Format: cell-based, Haemonchus contortus
Settings: for anthelmintic activity in LMA: first round, up to 125 μM, any time point
From the text: The H. contortus isolates used were TxPh-2011-S (Texas A&M University, USA) and UGA MDR 2020 (University of Georgia Athens, USA). TxPh-2011-S (Texas A&M University, USA) was originally isolated from Pronghorn antelope in West Texas in 2011 and is fully drug susceptible, phenotypically determined by the DrenchRite larval development assay (LDA; Microbial Screening Technologies, Kemps Creek, Australia). To establish this as a laboratory isolate, it was initially passaged in goats at Texas A&M University and then at The University of Georgia using both goats and sheep, and it is currently maintained in lambs at Louisiana State University. A nemabiome assay ([69]) was conducted at the University of Calgary to confirm that the isolate is 100% H. contortus. The UGA MDR 2020 (University of Georgia Athens, USA) isolate is resistant to ivermectin, benzimidazoles, levamisole, and moxidectin, as determined by the DrenchRite LDA. To establish this as a laboratory isolate, feces collected from a sheep farm in Georgia with known history of multiple anthelmintic resistance were cultured. Two donor goats were infected with the larvae recovered, which were morphologically ([70]) identified as 89% H. contortus. A fecal egg count reduction test (FECRT) was then performed in the infected goats. First, a combination treatment with albendazole at 15 mg/kg and ivermectin at 0.4 mg/kg was performed, followed by a treatment with levamisole at 12 mg/kg. Later, and to confirm resistance to moxidectin, another treatment was administered using a dose of 0.4 mg/kg of moxidectin. Posttreatment feces were recovered, coprocultures were established, and L3 larvae were identified as 100% H. contortus. Resistance to all drugs was subsequently confirmed using a DrenchRite assay.
For LMAs, the first phase testing using compounds NSC133100 and NSC177383 was done using the Worminator system in parallel with the LDA. Initial stock solutions of 12.5 mM were prepared for each compound using 100% DMSO as a solvent. Initial stock solutions (25 μL) were then diluted in 475 μL of culture media to yield working stock solutions of 625.00, 156.30, 39.10, 9.80, 2.40, 0.60, 0.20, 0.04, and 0.00 μM in 5% DMSO for each drug. In plate, 200 μL of working stock solutions were then diluted in 800 μL of culture media, yielding concentrations of 125.00, 31.25, 7.81, 1.95, 0.49, 0.12, and 0.00 μM in 1% DMSO. For the second phase of testing, compounds showing anthelmintic activity with the LDA were tested in a second round at higher concentrations than in the first phase of testing. Initial stocks of 50 mM were prepared for compounds NSC133100, NSC177383, NSC145612, and NSC56410 using 100% DMSO as a solvent. Initial stock solutions (25-μL portions) were then diluted in 475 μL of culture media consisting of 65% Lauria-Bertani (LB) (Thermo Fisher Scientific, Branchburg, NJ), 25% NCTC (Sigma-Aldrich), 10% fetal bovine serum (Atlanta Biologicals, Flowery Branch, GA), Pen/Strep (Sigma-Aldrich) at a final concentration of […], and amphotericin B (Sigma-Aldrich) at a final concentration of […]. The working stock solutions yielded concentrations of 2,500.00, 625.00, 156.30, 39.10, 9.80, 2.40, and 0.00 μM in 5% DMSO for each compound. In each well in the plate, 200 μL of working stock solutions were then diluted in 800 μL of culture media, yielding final concentrations of 500.00, 125.00, 31.30, 7.81, 1.95, 0.49, and 0.00 μM in 1% DMSO.
For the motility assays, 24-well plates with inserts were used (Costar, catalog no. 3379; Corning, Inc., Corning, NY). Portions (640 μL) of culture media were added to each well, and approximately 50 exsheathed larvae contained in 160 μL of culture media in each insert. Once pretreatment readings were taken, 160 μL of the drug solution was added to the well, and another 40 μL was added to the insert, reaching the final concentrations described in the protocol above. All concentrations were tested in triplicate. […]

## CO[C@H]1/C=C/O[C@@]2(C)Oc3c(C)c(O)c4c(O)c(cc(O)c4c3C2=O)NC(=O)/C(C)=C\C=C\[C@H](C)[C@H](O)[C@@H](C)[C@@H](O)[C@@H](C)[C@H](OC(C)=O)[C@@H]1C [NSC133100]
0.12 µM, 1 hour
  Percent inhibition of larval motility: -7.4%
0.12 µM, 4 hours
  Percent inhibition of larval motility: 14.9%
0.12 µM, 24 hours
  Percent inhibition of larval motility: 22.9%
0.12 µM, 48 hours
  Percent inhibition of larval motility: 8.7%
0.12 µM, 72 hours
  Percent inhibition of larval motility: 26.1%
0.12 µM, 96 hours
  Percent inhibition of larval motility: 7.4%
0.12 µM, Initial
  Percent inhibition of larval motility: -93.9%
0.49 µM, 1 hour
  Percent inhibition of larval motility: -29.1%
0.49 µM, 4 hours
  Percent inhibition of larval motility: 4.3%
0.49 µM, 24 hours
  Percent inhibition of larval motility: 8.0%
0.49 µM, 48 hours
  Percent inhibition of larval motility: -9.5%
0.49 µM, 72 hours
  Percent inhibition of larval motility: -14.9%
0.49 µM, 96 hours
  Percent inhibition of larval motility: -9.0%
0.49 µM, Initial
  Percent inhibition of larval motility: -118.5%
1.95 µM, 1 hour
  Percent inhibition of larval motility: -57.6%
1.95 µM, 4 hours
  Percent inhibition of larval motility: -16.4%
1.95 µM, 24 hours
  Percent inhibition of larval motility: -8.4%
1.95 µM, 48 hours
  Percent inhibition of larval motility: -37.5%
1.95 µM, 72 hours
  Percent inhibition of larval motility: -49.0%
1.95 µM, 96 hours
  Percent inhibition of larval motility: -50.7%
1.95 µM, Initial
  Percent inhibition of larval motility: -159.9%
7.81 µM, 1 hour
  Percent inhibition of larval motility: 27.5%
7.81 µM, 4 hours
  Percent inhibition of larval motility: 9.1%
7.81 µM, 24 hours
  Percent inhibition of larval motility: 25.3%
7.81 µM, 48 hours
  Percent inhibition of larval motility: 35.3%
7.81 µM, 72 hours
  Percent inhibition of larval motility: 32.1%
7.81 µM, 96 hours
  Percent inhibition of larval motility: 38.0%
7.81 µM, Initial
  Percent inhibition of larval motility: -74.0%
31.25 µM, 1 hour
  Percent inhibition of larval motility: 10.6%
31.25 µM, 4 hours
  Percent inhibition of larval motility: 7.1%
31.25 µM, 24 hours
  Percent inhibition of larval motility: 9.0%
31.25 µM, 48 hours
  Percent inhibition of larval motility: 35.2%
31.25 µM, 72 hours
  Percent inhibition of larval motility: 19.9%
31.25 µM, 96 hours
  Percent inhibition of larval motility: 28.7%
31.25 µM, Initial
  Percent inhibition of larval motility: -64.8%
125 µM, 1 hour
  Percent inhibition of larval motility: 4.3%
125 µM, 4 hours
  Percent inhibition of larval motility: -12.0%
125 µM, 24 hours
  Percent inhibition of larval motility: 3.2%
125 µM, 48 hours
  Percent inhibition of larval motility: 23.2%
125 µM, 72 hours
  Percent inhibition of larval motility: 3.1%
125 µM, 96 hours
  Percent inhibition of larval motility: 19.2%
125 µM, Initial
  Percent inhibition of larval motility: -8.9%
  anthelmintic activity in LMA: no anthelmintic activity

## CO[C@@H]1/C=C/O[C@@]2(C)Oc3c(C)c(O)c4c(c3C2=O)C(=N[C@@H]2CC[C@@H](O)O[C@H]2C)C=C(NC(=O)/C(C)=C\C(=O)[C@@H]2C[C@@H]2[C@H](O)[C@@H](C)[C@@H](O)[C@@H](C)[C@H](OC(C)=O)[C@@H]1C)C4=O [NSC177383]
0.12 µM, 1 hour
  Percent inhibition of larval motility: 29.41%
0.12 µM, 4 hours
  Percent inhibition of larval motility: 4.95%
0.12 µM, 24 hours
  Percent inhibition of larval motility: 28.20%
0.12 µM, 48 hours
  Percent inhibition of larval motility: 2.41%
0.12 µM, 72 hours
  Percent inhibition of larval motility: 4.89%
0.12 µM, 96 hours
  Percent inhibition of larval motility: -16.32%
0.12 µM, Initial
  Percent inhibition of larval motility: -1.62%
0.49 µM, 1 hour
  Percent inhibition of larval motility: 25.94%
0.49 µM, 4 hours
  Percent inhibition of larval motility: 18.27%
0.49 µM, 24 hours
  Percent inhibition of larval motility: 23.09%
0.49 µM, 48 hours
  Percent inhibition of larval motility: 12.98%
0.49 µM, 72 hours
  Percent inhibition of larval motility: -5.94%
0.49 µM, 96 hours
  Percent inhibition of larval motility: -72.91%
0.49 µM, Initial
  Percent inhibition of larval motility: -11.69%
1.95 µM, 1 hour
  Percent inhibition of larval motility: 30.56%
1.95 µM, 4 hours
  Percent inhibition of larval motility: 33.37%
1.95 µM, 24 hours
  Percent inhibition of larval motility: 18.80%
1.95 µM, 48 hours
  Percent inhibition of larval motility: 14.16%
1.95 µM, 72 hours
  Percent inhibition of larval motility: -3.70%
1.95 µM, 96 hours
  Percent inhibition of larval motility: -23.78%
1.95 µM, Initial
  Percent inhibition of larval motility: 21.82%
7.81 µM, 1 hour
  Percent inhibition of larval motility: 26.94%
7.81 µM, 4 hours
  Percent inhibition of larval motility: 26.72%
7.81 µM, 24 hours
  Percent inhibition of larval motility: 22.63%
7.81 µM, 48 hours
  Percent inhibition of larval motility: 34.44%
7.81 µM, 72 hours
  Percent inhibition of larval motility: 14.00%
7.81 µM, 96 hours
  Percent inhibition of larval motility: -53.76%
7.81 µM, Initial
  Percent inhibition of larval motility: 22.03%
31.25 µM, 1 hour
  Percent inhibition of larval motility: 14.47%
31.25 µM, 4 hours
  Percent inhibition of larval motility: 38.95%
31.25 µM, 24 hours
  Percent inhibition of larval motility: 18.83%
31.25 µM, 48 hours
  Percent inhibition of larval motility: 26.89%
31.25 µM, 72 hours
  Percent inhibition of larval motility: 16.58%
31.25 µM, 96 hours
  Percent inhibition of larval motility: -23.43%
31.25 µM, Initial
  Percent inhibition of larval motility: 28.34%
125 µM, 1 hour
  Percent inhibition of larval motility: 42.55%
125 µM, 4 hours
  Percent inhibition of larval motility: 10.81%
125 µM, 24 hours
  Percent inhibition of larval motility: 16.94%
125 µM, 48 hours
  Percent inhibition of larval motility: 42.97%
125 µM, 72 hours
  Percent inhibition of larval motility: 27.79%
125 µM, 96 hours
  Percent inhibition of larval motility: 41.45%
125 µM, Initial
  Percent inhibition of larval motility: 22.02%
  anthelmintic activity in LMA: no anthelmintic activity
